Measured values taken from ChEMBL document CHEMBL6083268, “Discovery of BAY 2413555, First Selective Positive Allosteric Modulator of the M2 Receptor to Restore Cardiac Autonomic Balance” (J Med Chem, 2024).
≈ marks a conversion by molar mass, not a printed value.

Columns and labels:
[1] = biological target: T1, Muscarinic acetylcholine receptor M2 (Homo sapiens, UniProt P08172); test: Displacement of [3H]7-[(3R,4R)-3,4-Dihydroxypyrrolidin-1-yl]-6-fluoro-4-oxo-N-[3,3,4,4,4-pentafluorobutan-2-yl]-1-(2,4,6-trifluorophenyl)-1,4-dihydro-1,8-naphthyridine-3-carboxamide from human M2 muscarinic acetylcholine receptor expressed in CHO-S cells in presence of acetylcholine by competitive radioligand binding assay; assay type: cell-based
T1 sequence (P08172 whole entry): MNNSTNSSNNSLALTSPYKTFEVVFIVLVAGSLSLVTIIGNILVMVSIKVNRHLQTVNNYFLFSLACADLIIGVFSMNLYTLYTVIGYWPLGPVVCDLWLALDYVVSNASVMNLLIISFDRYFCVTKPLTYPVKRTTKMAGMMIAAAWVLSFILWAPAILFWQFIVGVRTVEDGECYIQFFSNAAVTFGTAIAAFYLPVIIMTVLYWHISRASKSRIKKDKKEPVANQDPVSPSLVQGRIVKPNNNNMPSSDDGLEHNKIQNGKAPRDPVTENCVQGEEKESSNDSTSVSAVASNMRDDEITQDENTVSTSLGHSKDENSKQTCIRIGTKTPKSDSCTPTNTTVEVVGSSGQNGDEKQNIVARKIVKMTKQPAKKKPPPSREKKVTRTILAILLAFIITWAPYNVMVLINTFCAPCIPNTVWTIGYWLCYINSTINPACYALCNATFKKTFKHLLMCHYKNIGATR

[2] = biological target: T1, Muscarinic acetylcholine receptor M2
Description: Positive allosteric modulator activity at human M2 receptor co-expressing mouse GIRK1 and rat GIRK4 subunits in CHO-DUKX cells assessed as changes in acetylcholine-induced membrane potential hyperpolarization by FLIPR analysis

[3] = Intrinsic clearance in rat hepatocytes measured for 90 mins by LC-MS/MS analysis; assay type: ADME, cell-based, Hepatocyte; conditions: read-out: CLH (converted)
[4] = Apparent permeability of the compound across apical to basolateral sides in human Caco-2 cells at 2 uM measured after 2 hrs by LC-MS/MS analysis; assay type: ADME, cell-based
[5] = Volume of distribution at steady state in Wistar rat at 0.3 mg/kg, iv administered as bolus dose by LC-MS analysis; assay type: ADME, organism-based; conditions: in vivo, read-out: Vdss
[6] = Solubility of the compound in PBS buffer at pH 6.5 measured after 24 hrs by LC-MS/MS analysis; assay type: physicochemical
[7] = Blood clearance in Wistar rat at 0.3 mg/kg, iv administered as bolus dose by LC-MS analysis; assay type: ADME, organism-based
[8] = Half-life in Wistar rat at 0.3 mg/kg, iv administered as bolus dose by LC-MS analysis; assay type: ADME, organism-based; conditions: in vivo
[9] = Fraction unbound in human plasma; assay type: ADME, cell-free
[10] = Efflux ratio of apparent permeability across basal to apical membrane over apical to basal membrane in human Caco-2 cells at 2 uM measured after 2 hrs by LC-MS/MS analysis
[11] = Oral bioavailability in Wistar rat at 1 mg/kg by LC-MS analysis; assay type: ADME, organism-based; conditions: in vivo
[12] = Fraction unbound in rat plasma; assay type: ADME, cell-free
[13] = Tmax in Wistar rat at 1 mg/kg, po by LC-MS/MS analysis; assay type: ADME, organism-based; conditions: in vivo
[14] = Half life in Wistar rat at 1 mg/kg, po by LC-MS/MS analysis; assay type: ADME, organism-based; conditions: in vivo

Compound	predicted hepatic blood clearance at […] [3] [mL/min/kg]	Papp A→B at 2 h, 2 µM [4] [×10⁻⁶ cm/s]	Vd [5] [L/kg]	solubility at 24 h [6] [µg/mL]	clearance [7] [mL/min/kg]	half-life [8] [h]	also measured
COc1nc2sc(C(=O)NC3CC3)c(N)c2c(C)c1Cl	–	–	–	–	–	–	Ki [1]: 3 µM; EC50 [2]: 2.4 µM
O=C(NC12CC3CC(CC(C3)C1)C2)c1cn(-c2ccc(F)cc2F)c2nc(N3CCCC3=O)ccc2c1=O	60	–	–	–	–	–	–
CC[C@H](NC(=O)c1cn(-c2c(F)cc(F)cc2F)c2nc(N3C[C@@H](O)[C@H](O)C3)ccc2c1=O)C(F)(F)F	21.7	1.2	3.5	13 (≈ 24.5 µM)	25	1.6	–
CC[C@@H](NC(=O)c1cn(-c2ccccc2Cl)c2nc(N3C[C@@H](O)CC3=O)ccc2c1=O)C(F)(F)F	43.3	–	–	0.3 (≈ 0.59 µM)	–	–	–
CN(C)c1ccc2c(=O)c(C(=O)NC34CC5CC(CC(C5)C3)C4)cn(-c3ccc(F)cc3F)c2n1	41.7	–	–	–	–	–	–
CC[C@H](NC(=O)c1cn(-c2c(F)cccc2F)c2nc(N3C[C@@H](O)CC3=O)ccc2c1=O)C(F)(F)F	25	–	–	1.5 (≈ 2.94 µM)	–	–	–
CC[C@@H](NC(=O)c1cn(-c2ccccc2F)c2nc(N3C[C@@H](O)CC3=O)ccc2c1=O)C(F)(F)F	31.7	–	–	1.1 (≈ 2.23 µM)	–	–	–
CC[C@@H](NC(=O)c1cn(-c2c(Cl)cccc2Cl)c2nc(N3C[C@@H](O)CC3=O)ccc2c1=O)C(F)(F)F	43.3	–	–	–	–	–	–
O=C(N[C@@H](C1CC1)C(F)(F)F)c1cn(-c2c(F)cc(F)cc2F)c2nc(N3C[C@@H](O)[C@H](O)C3)ccc2c1=O	18.3	12.9	3.7	12.5 (≈ 23 µM)	15	4.6	fraction unbound [9]: 0.033; efflux ratio at 2 h, 2 µM [10]: 8; bioavailability [11]: 19%; fraction unbound [12]: 0.025
O=C(NC12CC3CC(CC(C3)C1)C2)c1cn(-c2ccc(F)cc2F)c2nc(N3CCCC3)ccc2c1=O	50	–	–	–	–	–	–
CC[C@@H](NC(=O)c1cn(-c2c(F)cccc2F)c2nc(N3C[C@@H](O)CC3=O)ccc2c1=O)C(F)(F)F	21.7	48.2	1.7	2.9 (≈ 5.68 µM)	21.7	1.2	fraction unbound [9]: 0.023; efflux ratio at 2 h, 2 µM [10]: 0.8; bioavailability [11]: 29%; fraction unbound [12]: 0.009
CC[C@H](NC(=O)c1cn(-c2c(F)cc(F)cc2F)c2nc(N3C[C@@H](O)CC3=O)ccc2c1=O)C(F)(F)F	16.7	46.2	3.5	0.4 (≈ 0.757 µM)	20	3.4	fraction unbound [9]: 0.03; efflux ratio at 2 h, 2 µM [10]: 0.6; bioavailability [11]: 91%; fraction unbound [12]: 0.02
CC[C@@H](NC(=O)c1cn(-c2ccc(F)cc2F)c2nc(N3C[C@@H](O)CC3=O)ccc2c1=O)C(F)(F)F	22.7	45.6	0.8	1.9 (≈ 3.72 µM)	26.7	0.8	efflux ratio at 2 h, 2 µM [10]: 0.9; bioavailability [11]: 29%; fraction unbound [12]: 0.008
CC[C@@H](NC(=O)c1cn(-c2c(F)cc(F)cc2F)c2nc(N3C[C@@H](O)CC3=O)ccc2c1=O)C(F)(F)F	31.7	43.4	2.3	2.2 (≈ 4.16 µM)	56.7	0.9	efflux ratio at 2 h, 2 µM [10]: 0.6
CC[C@@H](NC(=O)c1cn(-c2c(Cl)cc(F)cc2Cl)c2nc(N3C[C@@H](O)CC3=O)ccc2c1=O)C(F)(F)F	31.7	–	–	< 0.1	–	–	–
CC(C)(C)[C@H](NC(=O)c1cn(-c2c(F)cc(F)cc2F)c2nc(N3C[C@@H](O)[C@H](O)C3)ccc2c1=O)C(F)(F)F	41.7	–	–	1.4 (≈ 2.51 µM)	–	–	–
O=C(NC1(C(F)(F)F)CCCC1)c1cn(-c2c(F)cc(F)cc2F)c2nc(N3C[C@@H](O)[C@H](O)C3)ccc2c1=O	60	–	–	–	–	–	–
O=C(NC1(C(F)(F)F)CCC1)c1cn(-c2c(F)cc(F)cc2F)c2nc(N3C[C@@H](O)[C@H](O)C3)ccc2c1=O	58.3	–	–	0.9 (≈ 1.66 µM)	–	–	–
O=C(Nc1c(Cl)cccc1Cl)c1cn(-c2ccc(F)cc2F)c2nc(N3C[C@@H](O)CC3=O)ccc2c1=O	26.7	–	–	–	–	–	–
CC[C@H](NC(=O)c1cn(-c2ncc(F)cc2F)c2nc(N3C[C@@H](O)CC3=O)ccc2c1=O)C(F)(F)F	6.67	–	–	1.8 (≈ 3.52 µM)	–	–	–
CC[C@H](NC(=O)c1cn(-c2c(F)cc(F)cc2F)c2nc(N3CC4CC4(O)C3)ccc2c1=O)C(F)(F)F (mixture of isomers)	56.7	–	–	< 0.1	–	–	–
CCC(NC(=O)c1cn(-c2c(F)cc(F)cc2F)c2nc(N3C[C@@H](O)[C@H](O)C3)ccc2c1=O)C(F)(F)C(F)(F)F (single isomer, unassigned; diastereomer 1)	33.3	8.3	1.2	62 (≈ 107 µM)	8.33	2.1	fraction unbound [9]: 0.018; bioavailability [11]: 22%; fraction unbound [12]: 0.013
CC(NC(=O)c1cn(-c2c(F)cc(F)cc2F)c2nc(N3C[C@@H](O)[C@H](O)C3)ccc2c1=O)C(F)(F)C(F)(F)F (single isomer, unassigned; diastereomer 1)	13.3	19.3	2.5	54.7 (≈ 96.6 µM)	11.7	2.1	bioavailability [11]: 21%
CCC(NC(=O)c1cn(-c2c(F)cc(F)cc2F)c2nc(N3C[C@@H](O)[C@H](O)C3)c(F)cc2c1=O)C(F)(F)C(F)(F)F (single isomer, unassigned; diastereomer 1)	20	11.3	3	11.2 (≈ 18.7 µM)	23.3	1.8	Tmax [13]: 6 h; half-life [14]: 4.2 h; bioavailability [11]: 48%; fraction unbound [12]: 0.006
CC(C)(C)C(NC(=O)c1cn(-c2c(F)cc(F)cc2F)c2nc(N3C[C@@H](O)[C@H](O)C3)c(F)cc2c1=O)C(F)(F)C(F)(F)F (single isomer, unassigned; diastereomer 2)	51.7	6	–	0.4 (≈ 0.638 µM)	–	–	–
